Data published in paper PMC8037418, “Outlining In Vitro and In Silico Cholinesterase Inhibitory Activity of Twenty-Four Natural Products of Various Chemical Classes: Smilagenin, Kokusaginine, and Methyl Rosmarinate as Emboldening Inhibitors” (Molecules, 2021).
Converted amounts (≈) assume the structure as drawn. Where two headings read alike, the source gives them in different places.

Tests used:
[1] = target: T1, AChE (Homo sapiens, UniProt P22303); test: biochemical; details: for inhibition at 100 µg/mL: read-out: ChE Inhibition (Inhibition % ± S.D. at 100 µg/mL) AChE
Protocol: (§1) Inhibition of AChE and BChE was determined by Ellman’s method with slight modifications. To the reaction mixture, 140 µL of […] sodium phosphate buffer (pH 8), 20 µL of DTNB, 20 µL of enzyme (either AChE or BChE) and 20 µL of the samples to be tested was added later incubated for 15 min at 25 °C. About 10 µL of […] or butyrylthiocholine chloride which act as substrates to react with DTNB forming 5-thio-2-nitrobenzoate anion, that formed a yellow-colored complex, was added into the incubated sample. The absorbance is measured at 417 nm using a 96-well ELISA microplate reader (VersaMax, Molecular Devices, San Jose, CA, USA) Galanthamine was used the reference drug.
(§2) The measurements and calculations were evaluated by using Softmax PRO 4.3.2.LS software. Percentage of inhibition of AChE/BChE/TYR was determined by comparison of rates of reaction of test samples relative to blank samples. Extent of the enzymatic reaction was calculated based on the following equation: I% = (C-T)/C × 100, where I% is the activity of the enzyme as percent inhibition. E value expresses the effect of the test sample or the positive control on AChE/BChE/TYR enzyme activity articulated as the percentage of the remaining activity in the presence of test sample or positive control. C value is the absorbance of the control solvent (blank) in the presence of enzyme, where T is the absorbance of the tested sample (plant extract or positive control in the solvent) in the presence of enzyme.

[2] = target: T2, BChE (Homo sapiens, UniProt P06276); test: Microtiter (Ellman) assay for BChE inhibition; assay type: biochemical; details: for inhibition at 100 µg/mL: read-out: ChE Inhibition (Inhibition % ± S.D. at 100 µg/mL) BChE
Protocol: as §1, §2

[3] = tested on: AChE of electric eel origin; details: cited from earlier work
[4] = target: T2, BChE; details: cited from earlier work
[5] = target: T1, AChE; details: cited from earlier work
[6] = at 100 µg/mL, n: 3, '-' = No inhibition
[7] = at 100 μg/mL, from Verbascum xanthophoeniceum and V. mucronatum

T2 sequence (P06276 29-602): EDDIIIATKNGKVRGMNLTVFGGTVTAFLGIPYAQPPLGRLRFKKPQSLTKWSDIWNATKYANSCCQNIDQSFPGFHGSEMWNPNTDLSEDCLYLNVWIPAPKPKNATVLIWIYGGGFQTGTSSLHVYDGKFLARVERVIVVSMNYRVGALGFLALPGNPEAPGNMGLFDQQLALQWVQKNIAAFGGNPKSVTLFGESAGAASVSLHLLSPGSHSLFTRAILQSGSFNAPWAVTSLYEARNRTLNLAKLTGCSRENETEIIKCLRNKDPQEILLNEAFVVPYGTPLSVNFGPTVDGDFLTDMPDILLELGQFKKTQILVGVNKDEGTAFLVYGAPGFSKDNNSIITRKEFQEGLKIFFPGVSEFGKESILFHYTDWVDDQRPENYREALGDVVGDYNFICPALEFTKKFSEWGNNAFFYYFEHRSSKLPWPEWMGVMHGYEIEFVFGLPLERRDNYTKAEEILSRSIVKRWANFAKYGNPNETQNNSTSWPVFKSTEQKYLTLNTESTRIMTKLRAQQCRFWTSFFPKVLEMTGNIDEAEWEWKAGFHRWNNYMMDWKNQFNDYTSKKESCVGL
T1 sequence (P22303 32-614): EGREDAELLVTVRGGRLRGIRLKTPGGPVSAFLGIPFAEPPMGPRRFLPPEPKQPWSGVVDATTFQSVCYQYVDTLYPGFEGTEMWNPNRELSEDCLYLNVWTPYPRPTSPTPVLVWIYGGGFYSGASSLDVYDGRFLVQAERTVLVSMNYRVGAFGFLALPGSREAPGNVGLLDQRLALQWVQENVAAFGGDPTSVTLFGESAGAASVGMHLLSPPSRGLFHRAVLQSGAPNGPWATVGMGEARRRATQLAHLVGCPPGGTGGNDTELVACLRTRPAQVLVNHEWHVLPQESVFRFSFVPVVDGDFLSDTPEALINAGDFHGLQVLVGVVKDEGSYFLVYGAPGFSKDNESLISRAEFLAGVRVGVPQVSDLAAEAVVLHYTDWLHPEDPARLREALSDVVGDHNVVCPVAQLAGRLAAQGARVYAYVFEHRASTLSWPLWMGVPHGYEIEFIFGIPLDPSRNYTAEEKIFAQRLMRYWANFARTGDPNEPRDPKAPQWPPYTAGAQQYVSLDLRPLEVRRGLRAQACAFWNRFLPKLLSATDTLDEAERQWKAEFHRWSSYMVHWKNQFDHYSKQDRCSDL

CC(CCC(OC1OCC(O)C(O)C1O)C(C)(C)O)C1CCC2(C)C3C(O)CC4C(C)(C)C(OC5OC(C)C(O)C(O)C5O)CC(O)C45CC35CCC12C (stereo not drawn) [Macrophyllosaponin B]
inhibition at 100 µg/mL [1, 6]: 13.2 ± 0.92%
inhibition at 100 µg/mL [2]: 12.2 ± 1.16%

tannic acid [reference compound]
IC50 AChE [3]: 0.10 µg/mL

CC(C)(O)[C@@H]1CC[C@](C)([C@H]2[C@@H](O)C[C@@]3(C)[C@@H]4C[C@H](O[C@@H]5O[C@H](CO)[C@@H](O)[C@H](O)[C@H]5O)[C@H]5C(C)(C)[C@@H](O[C@@H]6OC[C@@H](O)[C@H](O)[C@H]6O)CC[C@@]56C[C@@]46CC[C@]23C)O1 [Astragaloside IV]
inhibition at 100 µg/mL [1, 6]: 4.8 ± 0.05%
inhibition at 100 µg/mL [2]: 6.62 ± 2.72%

COc1cc(C=CC(=O)OC2C(COC3OCC(O)(CO)C3O)OC(OCCc3ccc(O)c(O)c3)C(O)C2OC2OC(C)C(O)C(O)C2O)ccc1O (stereo not drawn) [Alyssonoside]
inhibition at 100 µg/mL [1, 6]: < 0%
inhibition at 100 µg/mL [2, 6]: 13 ± 2.07%

CC(CCC(OC1OCC(O)C(O)C1OC1OCC(O)C(O)C1O)C(C)(C)O)C1CCC2(C)C3C(O)CC4C(C)(C)C(OC5OC(C)C(O)C(O)C5O)CC(O)C45CC35CCC12C (stereo not drawn) [Macrophyllosaponin D]
inhibition at 100 µg/mL [1, 6]: 4.31 ± 1.32%
inhibition at 100 µg/mL [2]: 10.1 ± 0.78%

CC(=O)OC1C(O)COC(OC2CCC34CC35CCC3(C)C(C6(C)CCC(C(C)(C)O)O6)C(O)CC3(C)C5CC(OC3OCC(O)C(O)C3O)C4C2(C)C)C1OC(C)=O (stereo not drawn) [Astrasieversianin II]
inhibition at 100 µg/mL [1, 6]: 8.01 ± 0.48%
inhibition at 100 µg/mL [2]: 13.6 ± 1.79%

C[C@@H]1O[C@@H](O[C@@H]2[C@@H](O)[C@H](OCCc3ccc(O)c(O)c3)O[C@H](CO)[C@H]2OC(=O)/C=C/c2ccc(O)c(O)c2)[C@H](O)[C@H](O)[C@H]1O [Verbascoside]
inhibition at 100 µg/mL [1, 6]: 8.12 ± 1.49%
IC50 ([4]; Calceolaria talcana study): 170 µM
ChE inhibition (BChE) [4, 7]: below 30%
inhibition against BChE ([4]; isolated from Olea europea L.): no inhibition
inhibition at 100 µg/mL [2]: 22.2 ± 2.54%
IC50 ([5]; Calceolaria talcana study, read-out: IC50 AChE (converted)): 304 µM
AChE inhibition ([5]; at 100 μg/mL, from Pseuderanthemum carruthersii): < 50%
ChE inhibition (AChE) [5, 7]: below 30%
inhibition against AChE ([5]; isolated from Olea europea L.): no inhibition

CC(CCC(O)C(C)(C)O)C1C(O)CC2(C)C3CC(OC4OC(CO)C(O)C(O)C4O)C4C(C)(C)C(OC5OCC(O)C(O)C5OC5OC(CO)C(O)C(O)C5O)CCC45CC35CCC12C (stereo not drawn) [Cyclocanthoside G]
inhibition at 100 µg/mL [1, 6]: 6.85 ± 0.72%
inhibition at 100 µg/mL [2]: 8.23 ± 0.24%

C[C@@H]1CC[C@@]2(OC1)O[C@H]1C[C@H]3[C@@H]4CC[C@H]5C[C@@H](O)CC[C@]5(C)[C@H]4CC[C@]3(C)[C@H]1[C@@H]2C [Tigogenin]
ChE Inhibition (Inhibition % ± S.D. at 100 µg/mL) AChE [1, 6]: 17.09 ± 0.69%
inhibition at 100 µg/mL [1, 6]: 17%
inhibition at 100 µg/mL [2]: 22.2 ± 3.09%

CC1CCC2(OC1)OC1CC3C4CCC5CC(O)CCC5(C)C4CC(O)C3(C)C1C2C (stereo not drawn) [Rockogenin]
inhibition at 100 µg/mL [1]: 5.29 ± 0.52%
inhibition at 100 µg/mL [2]: 15.2 ± 2.56%

CC(=O)OC1C(O)COC(OC2CCC34CC35CCC3(C)C(C6(C)CCC(C(C)(C)O)O6)C(O)CC3(C)C5CC(OC3OC(CO)C(O)C(O)C3O)C4C2(C)C)C1OC(C)=O (stereo not drawn) [Astragaloside I]
inhibition at 100 µg/mL [1, 6]: < 0%
inhibition at 100 µg/mL [2]: 8.38 ± 1.28%

O=C(O)C1OC(Oc2cc(O)c3c(=O)cc(-c4ccc(O)c(O)c4)oc3c2)C(O)C(O)C1O (stereo not drawn) [Luteolin-7-O-glucuronide]
inhibition at 100 µg/mL [1, 6]: < 0%
inhibition at 100 µg/mL [2]: < 0%

CC(C)(O)C1CCC(C)(C2C(O)CC3(C)C4CC(OC5OCC(O)C(O)C5O)C5C(C)(C)C(OC6OCC(O)C(O)C6O)CCC56CC46CCC23C)O1 (stereo not drawn) [Astrasieversianin X]
inhibition at 100 µg/mL [1, 6]: 8.6 ± 0.91%
inhibition at 100 µg/mL [2]: 10.1 ± 2.34%

CC(CCC(O)C(C)(C)O)C1C(O)CC2(C)C3CC(OC4OC(CO)C(O)C(O)C4O)C4C(C)(C)C(OC5OCC(O)C(O)C5O)CCC45CC35CCC12C (stereo not drawn) [Cyclocanthoside E]
inhibition at 100 µg/mL [1, 6]: 2.18 ± 1.81%
inhibition at 100 µg/mL [2]: 5.35 ± 1.82%

CC(C)(O)[C@@H]1CC[C@](C)([C@H]2[C@@H](O)C[C@@]3(C)[C@@H]4C[C@H](O[C@@H]5O[C@H](CO)[C@@H](O)[C@H](O)[C@H]5O)[C@H]5C(C)(C)[C@@H](O[C@@H]6OC[C@@H](O)[C@H](O)[C@H]6O[C@@H]6O[C@H](CO)[C@@H](O)[C@H](O)[C@H]6O)CC[C@@]56C[C@@]46CC[C@]23C)O1 [Astragaloside VI]
inhibition at 100 µg/mL [1, 6]: 6.23 ± 2.82%
inhibition at 100 µg/mL [2]: 7.72 ± 0.53%

C[C@@H]1CC[C@@]2(OC1)O[C@H]1C[C@H]3[C@@H]4CC[C@@H]5C[C@@H](O)CC[C@]5(C)[C@H]4CC[C@]3(C)[C@H]1[C@@H]2C [Smilagenin]
IC50 [1]: 104 µM
inhibition at 100 µg/mL [1, 6]: 62.4 ± 2.44%
IC50 ([4]; compound isolated from Asparagus racemosus): 5.4 µM
inhibition at 100 µg/mL [2]: 15 ± 3.01%
IC50 ([5]; read-out: IC50 AChE, compound isolated from Asparagus racemosus): 9.9 µM

C[C@@H]1CC[C@@]2(OC1)O[C@H]1C[C@H]3[C@@H]4CC=C5C[C@@H](O)CC[C@]5(C)[C@H]4CC[C@]3(C)[C@H]1[C@@H]2C [Diosgenin]
inhibition at 100 µg/mL [1, 6]: 4.31 ± 0.37%
IC50 AChE [3]: 103.60 µg/mL (≈ 250 µM)
inhibition at 100 µg/mL [2]: 8.12 ± 2.64%

COC(=O)[C@@H](Cc1ccc(O)c(O)c1)OC(=O)/C=C/c1ccc(O)c(O)c1 [Methyl rosmarinate]
inhibition at 100 µg/mL [1, 6]: 16.8 ± 3.84%
IC50 [2]: 111 µM
inhibition at 100 µg/mL [2, 6]: 82.74 ± 0.62%

CC(CCC(O)C(C)(C)OC1OCC(O)C(O)C1O)C1CCC2(C)C3C(O)CC4C(C)(C)C(OC5OC(C)C(O)C(O)C5O)CC(O)C45CC35CCC12C (stereo not drawn) [Macrophyllosaponin C]
inhibition at 100 µg/mL [1, 6]: 12.4 ± 1.4%
inhibition at 100 µg/mL [2]: 16.5 ± 1.57%

C[C@@H]1CC[C@@]2(OC1)O[C@H]1C[C@H]3[C@@H]4CC[C@H]5C[C@@H](O)CC[C@]5(C)[C@H]4CC(=O)[C@]3(C)[C@H]1[C@@H]2C [Hecogenin]
ChE Inhibition (Inhibition % ± S.D. at 100 µg/mL) AChE [1, 6]: 25.36 ± 1.11%
inhibition at 100 µg/mL [1, 6]: 25%
inhibition at 100 µg/mL [2]: 17.3 ± 1.84%

COc1cc2nc3occc3c(OC)c2cc1OC [Kokusaginine]
IC50 [1]: 271 µM
inhibition at 100 µg/mL [1, 6]: 62.4 ± 3.2%
IC50 [2]: 237 µM
inhibition at 100 µg/mL [2, 6]: 67.4 ± 3.1%

COC(=O)C1=COC(OC2OC(CO)C(O)C(O)C2O)C2C(C)(O)CCC12O (stereo not drawn) [Ipolamide]
inhibition at 100 µg/mL [1, 6]: < 0%
inhibition at 100 µg/mL [2, 6]: 12.4 ± 2.28%

COC(=O)C1=COC(OC2OC(CO)C(O)C(O)C2O)C2C1(O)CC(O)C2(C)O (stereo not drawn) [Lamiide]
inhibition at 100 µg/mL [1, 6]: < 0%
inhibition at 100 µg/mL [2, 6]: 8.77 ± 0.92%

CC(=O)OC1C(OC(CCC(C)C2CCC3(C)C4C(O)CC5C(C)(C)C(OC6OC(C)C(O)C(O)C6O)CC(O)C56CC46CCC23C)C(C)(C)O)OCC(O)C1O (stereo not drawn) [Macrophyllosaponin A]
inhibition at 100 µg/mL [1, 6]: 9.69 ± 0.85%
inhibition at 100 µg/mL [2]: 12.2 ± 1.83%

COc1ccc2c3c1O[C@H]1C[C@@H](O)C=C[C@@]31CCN(C)C2 [Galanthamine HBr, reference compound]
inhibition at 100 µg/mL [2]: 60.3 ± 1.36%

Forsythoside B
ChE Inhibition (Inhibition % ± S.D. at 100 µg/mL) BChE [2, 6]: 14.80 ± 2.31%
AChE inhibition ([5]; Calceolaria talcana study): no AChE inhibition
